The target of data set [1] is T1, human neurokinin-2 receptor (Homo sapiens, UniProt P21452).
T1 construct: expressed in transfected cells; host or cells: CHO
T1 sequence (P21452 1-398): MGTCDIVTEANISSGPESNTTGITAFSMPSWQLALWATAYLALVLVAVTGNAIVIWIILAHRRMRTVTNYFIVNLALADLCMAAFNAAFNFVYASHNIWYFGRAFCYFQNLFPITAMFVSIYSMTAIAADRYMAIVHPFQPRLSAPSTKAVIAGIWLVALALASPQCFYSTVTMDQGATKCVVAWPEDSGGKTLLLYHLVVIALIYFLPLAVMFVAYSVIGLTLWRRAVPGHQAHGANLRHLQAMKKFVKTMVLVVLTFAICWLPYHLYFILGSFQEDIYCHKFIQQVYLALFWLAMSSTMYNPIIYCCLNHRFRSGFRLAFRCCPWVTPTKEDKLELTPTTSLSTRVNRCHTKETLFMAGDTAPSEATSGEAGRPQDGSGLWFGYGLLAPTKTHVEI
Briefly: Binding affinity to human NK-2 receptor expressed in CHO cells (inhibition of [125I]-NKA or [3H]-NKA binding). The following applies: human neurokinin-2 receptor expressed in CHO cell lines; read-out: Binding affinity, Ki (nM) hNK-2-CHO. The method, then: The activity of the compounds of the present invention, as NK-2 ligands, is determined by their ability to inhibit the binding of the radiolabelled NK-2 ligands, [^125I]-NKA or [^3H]-NKA, to human NK-2 receptors (Aharony et al, 1992, Neuropeptide, 23, 121-130).
The binding assays utilized allow the determination of the concentration of the individual compound required to reduce by 50% the [^125I]-NKA and [^3H]-NKA specific binding to NK2 receptor in equilibrium conditions (IC50).
Binding assays provide for each compound tested a mean IC50 value of 2-5 separate experiments performed in duplicate or triplicate. […] The NK-2-antagonist activity of the compounds of the present invention is determined by their ability to inhibit human NK-2 receptor-mediated Ca^++ mobilization (Mochizuki et al, 1994, J. Biol. Chem., 269, 9651-9658). Human receptor functional assay allows the determination of the concentration of the individual compound required to reduce by 50% (IC50 values) the Ca^++ mobilization induced by the agonist NKA. In this assay, the compounds of the present invention behave as antagonists.

The target in data set [2] is T2, human neurokinin-3 receptor (Homo sapiens, UniProt P29371).
T2 construct: expressed in transfected cells; host or cells: CHO
T2 sequence (P29371 1-465): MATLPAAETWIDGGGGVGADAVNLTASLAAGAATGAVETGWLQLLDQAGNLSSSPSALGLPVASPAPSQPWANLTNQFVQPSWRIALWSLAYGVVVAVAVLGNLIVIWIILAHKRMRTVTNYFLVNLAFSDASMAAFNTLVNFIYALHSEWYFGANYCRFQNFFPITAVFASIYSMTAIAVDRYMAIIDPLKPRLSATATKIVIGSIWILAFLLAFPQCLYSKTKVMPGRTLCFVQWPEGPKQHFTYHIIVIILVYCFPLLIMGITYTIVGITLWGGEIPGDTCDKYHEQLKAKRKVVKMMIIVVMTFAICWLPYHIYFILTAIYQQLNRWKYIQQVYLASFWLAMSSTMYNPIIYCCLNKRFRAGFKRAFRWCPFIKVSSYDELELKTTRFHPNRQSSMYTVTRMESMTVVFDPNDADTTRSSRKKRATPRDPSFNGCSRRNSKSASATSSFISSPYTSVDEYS
Briefly: Binding affinity to human NK-3 receptor expressed in CHO cells (inhibition of [125I]-[Me-Phe7]-NKB or [3H]-Senktide binding). The following applies: human neurokinin-3 receptor expressed in CHO cell lines; read-out: Binding affinity, Ki (nM) hNK-3-CHO. On the procedure: The activity of the compounds of the present invention, as NK3 ligands, is determined by their ability to inhibit the binding of the radiolabelled NK3 ligands, [^125I]-[Me-Phe^7]-NKB or [^3H]-Senktide, to guinea-pig and human NK3 receptors (Renzetti et al, 1991, Neuropeptide, 18, 104-114; Buell et al, 1992, FEBS, 299(1), 90-95; Chung et al, 1994, Biochem. Biophys. Res. Commun., 198(3), 967-972).
The binding assays utilized allow the determination of the concentration of the individual compound required to reduce by 50% the [^125I]-[Me-Phe^7]-NKB and [^3H]-Senktide specific binding to NK3 receptor in equilibrium conditions (IC50).
Binding assays provide for each compound tested a mean IC50 value of 2-5 separate experiments performed in duplicate or triplicate. […] The NK3-antagonist activity of the compounds of the present invention is determined by their ability to inhibit senktide-induced contraction of the guinea-pig ileum (Maggi et al, 1990, Br. J. Pharmacol., 101, 996-1000) and rabbit isolated iris sphincter muscle (Hall et al., 1991, Eur. J. Pharmacol., 199, 9-14) and human NK3 receptors-mediated Ca^++ mobilization (Mochizuki et al, 1994, J. Biol. Chem., 269, 9651-9658). Guinea-pig and rabbit in-vitro functional assays provide for each compound tested a mean KB value of 3-8 separate experiments, where KB is the concentration of the individual compound required to produce a 2-fold rightward shift in the concentration-response curve of senktide. Human receptor functional assay allows the determination of the concentration of the individual compound required to reduce by 50% (IC50 values) the Ca^++ mobilization induced by the agonist NKB. In this assay, the compounds of the present invention behave as antagonists.

Turning to `CC[C@H](NC(=O)c1c(CCN2CCN(c3ccc(F)cc3)CC2)c(-c2ccccc2)nc2ccccc12)c1ccccc1` [Example 30], the melting point (in general, the temperature, or range, at which the solid turns liquid) lay in the range of 96 to 98 °C. Also, in data set [1], the Ki (in general, a measure of affinity in units of concentration, obtained from inhibition or displacement) was 27.1 nM. Further, in data set [2], the Ki stood at 3 nM.

Regarding `CC[C@H](NC(=O)c1c(CN2CCC3(CCCC3)CC2)c(-c2ccccc2)nc2ccccc12)c1ccccc1` [Example 31], the melting point fell in the range of 156 to 160 °C. The Ki in data set [1] came out at 143 nM. In addition, the Ki in data set [2] was determined as 3.9 nM.

`CC[C@H](NC(=O)c1c(CN2CC[C@H](O)C2)c(-c2ccccc2)nc2ccccc12)c1ccccc1` [Example 32, (S)-N-(α-ethylbenzyl)-3-[(3-(S)-hydroxy)pyrrolidin-1-ylmethyl]-2-phenylquinoline-4-carboxamide] yielded a melting point of 90 to 95 °C. The Ki in data set [1] was 68.8 nM. The Ki in data set [2] is 3.2 nM.

For `CC[C@H](NC(=O)c1c(CN2CC[C@@H](O)C2)c(-c2ccccc2)nc2ccccc12)c1ccccc1` [Example 33], the melting point is 100 to 105 °C. The Ki in data set [1] was found to be 64.8 nM. For the same molecule, the Ki in data set [2] was found to be 2.9 nM.

As for `CC[C@H](NC(=O)c1c(CN2CCC(=O)C2)c(-c2ccccc2)nc2ccccc12)c1ccccc1` [Example 34, (S)-N-(α-ethylbenzyl)-3-[(3-oxo)pyrrolidin-1-ylmethyl]-2-phenylquinoline-4-carboxamide], the melting point fell in the range of 142 to 145 °C. Besides, the Ki in data set [1] is 38 nM. Besides, the Ki in data set [2] is 1.5 nM.

`CC[C@H](NC(=O)c1c(CN2CCN(CC)CC2)c(-c2ccccc2)nc2ccccc12)c1ccccc1` [Example 36] returned a melting point of 75 to 78 °C. Moreover, the Ki in data set [1] was 12.7 nM. In addition, in data set [2], the Ki turned out to be 1.7 nM.

With `CC[C@H](NC(=O)c1c(CN2CCN(CCc3ccccc3)CC2)c(-c2ccccc2)nc2ccccc12)c1ccccc1` [Example 37], the melting point was 158 to 160 °C. For the same molecule, in data set [1], the Ki came out at 0.9 nM. Further, the Ki in data set [2] is 0.8 nM.

Turning to `CC(C)[C@H](NC(=O)c1c(CN(C)C)c(-c2ccccc2)nc2ccccc12)c1ccccc1` [Example 41], the melting point was in the range of 117 to 120 °C. Also, the Ki in data set [1] is 56.7 nM. Also, the Ki in data set [2] stood at 3.3 nM.

As for `CC(C)[C@H](NC(=O)c1c(CN2CCN(C(C)C)CC2)c(-c2ccccc2)nc2ccccc12)c1ccccc1` [Example 43], the melting point fell in the range of 125 to 130 °C. For the same molecule, the Ki in data set [1] came to 1.2 nM. Besides, the Ki in data set [2] was 1 nM.

The record behind these values is patent US20010012846A1, “Quinoline-4-carboxamide derivatives as NK-2 and NK-3 receptor antagonists” (priority 1997, published 2001).
